The values that follow come from PubChem BioAssay (NCI).

Among the test systems are A498 renal; A549 NSCLC; DU-145 prostate; HS 578T breast; MOLT-4 leukemia; OVCAR-4 ovarian; SR leukemia; SW-620 colon; UACC-62 melanoma; PC-3 prostate.
Common to all, as to assay: growth of human tumour cells (NCI), 48 h

Structures are written as SMILES.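 How tested: cells in 96-well plates exposed to compound for 48 hours at five concentrations. At the GI50, growth is halved. TGI marks complete inhibition of growth.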 Some results are limits rather than exact numbers.

On to `C[C@H](NC(=O)[C@@H](C)N)[C@H](Oc1ccc2c(cnn2-c2ccc(F)cc2)c1)c1ccc2c(c1)OCCO2`, for which the GI50 in the assay on A498 renal was 11.5 µM; with A549 NSCLC, 1.36 µM; in the assay on DU-145 prostate, 2.02 µM; in the assay with HS 578T breast, 3.67 µM; with MOLT-4 leukemia, 1.44 µM; in the assay with OVCAR-4 ovarian, 2.84 µM. The GI50 was 2.03 µM with SR leukemia, 1.71 µM in the assay on SW-620 colon and 1.87 µM in the assay on UACC-62 melanoma. The TGI with A498 renal was 24.4 µM; in the assay with A549 NSCLC, 12.6 µM; in the assay with DU-145 prostate, 5.01 µM; with HS 578T breast, 13.1 µM; in the assay on MOLT-4 leukemia, 4.25 µM; in the assay on OVCAR-4 ovarian it was 12.1 µM. The results for the TGI in the assay on SR leukemia, in the assay on SW-620 colon and in the assay on UACC-62 melanoma were 5.24 µM, 3.36 µM and 3.39 µM, respectively.

`COc1ccc2[nH]cc(-c3ccc(-c4c[nH]c5ccc(OC)cc45)s3)c2c1`: the GI50 is 3.58 µM in the assay with A498 renal; 3.94 µM with A549 NSCLC; 4.87 µM in the assay on DU-145 prostate; 8.99 µM with HS 578T breast; 1.16 µM in the assay with MOLT-4 leukemia; 6.82 µM in the assay on OVCAR-4 ovarian. For the same molecule, the GI50 in the assay with PC-3 prostate was 3.08 µM; in the assay with SW-620 colon, 2.94 µM; in the assay with UACC-62 melanoma, 13.3 µM. Also, the TGI with A498 renal amounted to 14.3 µM; in the assay with A549 NSCLC, 21.9 µM; in the assay with DU-145 prostate, 18.4 µM; with HS 578T breast it was 44.6 µM; in the assay with MOLT-4 leukemia, 6.95 µM; in the assay on OVCAR-4 ovarian, 23.7 µM. Moreover, the results for the TGI with PC-3 prostate, in the assay on SW-620 colon and in the assay on UACC-62 melanoma were 9.77 µM, 8.15 µM and 30.8 µM, respectively.

Consider `C/C=C(\C)C(=O)NC1=CC[C@@]2(C)C(=CCC3C2CC[C@@]2(C)C3CC[C@@H]2C(C)N(C)C)C1=O` (stereo not given in full), for which the GI50 was 2.03 µM with A498 renal; 4.99 µM in the assay with A549 NSCLC; 7.06 µM in the assay with DU-145 prostate; 4.65 µM in the assay on HS 578T breast; 0.843 µM in the assay with MOLT-4 leukemia; 4.58 µM with OVCAR-4 ovarian. Moreover, the GI50 with PC-3 prostate was 2.5 µM; in the assay on SW-620 colon, 2.02 µM; with UACC-62 melanoma it was 1.82 µM. In addition, the TGI in the assay with A498 renal was 18.2 µM; in the assay on A549 NSCLC, 23.4 µM; with DU-145 prostate it was greater than 59.5 µM; with HS 578T breast, 23.2 µM; with MOLT-4 leukemia, 6.43 µM; in the assay on OVCAR-4 ovarian, greater than 50.2 µM. For the same molecule, the TGI is 17.7 µM with PC-3 prostate, 4.91 µM with SW-620 colon and 3.85 µM with UACC-62 melanoma.

As for `C=C1C(=O)O[C@H]2[C@H]1CC/C(COC(=O)CSCSCC(=O)OC/C1=C/CC[C@@]3(C)O[C@H]3[C@H]3OC(=O)C(=C)[C@@H]3CC1)=C\CC[C@@]1(C)O[C@@H]21`, the GI50 in the assay on A498 renal is 3.83 µM; in the assay with A549 NSCLC, 2.44 µM; in the assay with DU-145 prostate, 1.66 µM; in the assay with HS 578T breast, 4.88 µM; in the assay with MOLT-4 leukemia, 0.505 µM; in the assay on OVCAR-4 ovarian, 2.68 µM. Besides, the figures for the GI50 in the assay on PC-3 prostate, in the assay on SW-620 colon and in the assay with UACC-62 melanoma were 1.86 µM, 1.41 µM and 1.88 µM, respectively. The TGI stood at 14.8 µM in the assay with A498 renal; 6.23 µM in the assay on A549 NSCLC; 3.19 µM in the assay with DU-145 prostate; 64.2 µM with HS 578T breast; 3.09 µM in the assay on MOLT-4 leukemia; 8.74 µM in the assay with OVCAR-4 ovarian. The TGI in the assay on PC-3 prostate is 4.14 µM; with SW-620 colon, 3.26 µM; in the assay with UACC-62 melanoma it was 4.03 µM.

Consider `CNC(=O)Nc1nc2ccc([N+](=O)[O-])cc2[nH]1`, for which the TGI in the assay on A498 renal, in the assay with A549 NSCLC, in the assay on DU-145 prostate, with HS 578T breast, in the assay with MOLT-4 leukemia and in the assay on OVCAR-4 ovarian was greater than 100 µM each time. Also, the TGI in the assay with PC-3 prostate, with SR leukemia and with SW-620 colon was greater than 100 µM in each case.

On to `CCOc1cccc(/C=N/N=C2\C(=O)Nc3c(Cl)cc(Cl)cc32)c1O`, for which the TGI with A498 renal, in the assay on A549 NSCLC, with HS 578T breast, with MOLT-4 leukemia, with OVCAR-4 ovarian and in the assay on PC-3 prostate was greater than 100 µM each time. Besides, the TGI in the assay on SR leukemia, in the assay on SW-620 colon and in the assay with UACC-62 melanoma was greater than 100 µM throughout.

Turning to `CCOC(=O)c1c(C)nc2c(c1N)CC(=O)N2Cc1ccc(OC)cc1`, the GI50 with DU-145 prostate was greater than 100 µM; in the assay on HS 578T breast, 4.78 µM; in the assay on MOLT-4 leukemia, 81.3 µM; in the assay with OVCAR-4 ovarian it was greater than 100 µM; in the assay with PC-3 prostate, greater than 100 µM; with SR leukemia, 63.1 µM. The GI50 in the assay with SW-620 colon is greater than 100 µM; with UACC-62 melanoma, 34.1 µM. The TGI in the assay with DU-145 prostate, in the assay with HS 578T breast, with MOLT-4 leukemia, in the assay with OVCAR-4 ovarian, in the assay with PC-3 prostate and with SR leukemia was greater than 100 µM in each case. Also, the TGI with SW-620 colon and in the assay with UACC-62 melanoma was greater than 100 µM each time.

With `COC12C=C/C(=C(/C(=O)OCc3cncnc3)C(=O)CCCCCCCCC3(OC)C=C/C(=C(/C(=O)OCc4cncnc4)C(=O)CCCCCCCC1)O3)O2`, the GI50 in the assay with A498 renal was 0.961 µM; with A549 NSCLC, 0.848 µM; in the assay on DU-145 prostate, 0.5 µM; in the assay with HS 578T breast it was 1.3 µM; in the assay with OVCAR-4 ovarian, 0.548 µM; in the assay on SR leukemia, 0.155 µM. Moreover, the results for the GI50 in the assay on SW-620 colon and in the assay on UACC-62 melanoma were 0.19 µM and 0.533 µM, respectively. Also, the TGI with A498 renal was found to be 1.7 µM; with A549 NSCLC it was 2.24 µM; with DU-145 prostate, 2.55 µM; with HS 578T breast, 6.24 µM; in the assay with OVCAR-4 ovarian, 2.81 µM; in the assay with SR leukemia, 6.61 µM. The TGI was found to be 1.19 µM in the assay with SW-620 colon and 1.21 µM with UACC-62 melanoma.

On to `CN(/N=C/c1cccc2cccnc12)c1ccc([N+](=O)[O-])cc1[N+](=O)[O-]`, for which the TGI in the assay with A498 renal is 43.7 µM; in the assay on A549 NSCLC, greater than 100 µM; in the assay with DU-145 prostate, greater than 100 µM; in the assay with HS 578T breast, 34.8 µM; in the assay on MOLT-4 leukemia it was greater than 100 µM; with OVCAR-4 ovarian, greater than 70.3 µM. Moreover, the values for the TGI with PC-3 prostate, in the assay on SW-620 colon and with UACC-62 melanoma were greater than 100 µM, greater than 100 µM and 63.1 µM, respectively.

On to `CC(=O)NC1C(OC[C@@H](CC(=O)N[C@@H](CC(=O)O)CC(=O)N[C@H](CC(=O)N[C@@H](CCCN)CC(=O)N[C@@H](CCCN)CC(=O)N[C@H](CC(N)=O)C(C)C)C(C)C)NC(=O)C[C@@H](N)C(C)C)OC(CO)C(O)C1O` (stereo not given in full), for which the GI50 in the assay on A498 renal, in the assay with A549 NSCLC, in the assay with DU-145 prostate, in the assay on HS 578T breast, in the assay with MOLT-4 leukemia and in the assay on OVCAR-4 ovarian was greater than 100 µM throughout. In addition, the GI50 in the assay with PC-3 prostate, with SW-620 colon and with UACC-62 melanoma was greater than 100 µM in each case. The TGI with A498 renal, with A549 NSCLC, in the assay with DU-145 prostate, with HS 578T breast, in the assay with MOLT-4 leukemia and in the assay with OVCAR-4 ovarian was greater than 100 µM throughout. The TGI in the assay on PC-3 prostate, with SW-620 colon and in the assay with UACC-62 melanoma was greater than 100 µM throughout.

In the case of `O=C(Nc1ccc([As](=O)(O)O)cc1)Nc1cccc(Cl)c1Cl`, the TGI in the assay on A498 renal is greater than 100 µM; in the assay on A549 NSCLC, greater than 100 µM; in the assay on DU-145 prostate it was greater than 100 µM; with HS 578T breast it was 84.8 µM; in the assay on OVCAR-4 ovarian, greater than 100 µM; in the assay with PC-3 prostate it was greater than 100 µM. The TGI in the assay with SR leukemia, in the assay on SW-620 colon and with UACC-62 melanoma was greater than 100 µM each time.

As for `NS(=O)(=O)c1ccc(-n2nc(-c3ccc(Cl)cc3)cc2-c2cc(O)ccc2O)cc1`, the GI50 was 12.2 µM with A549 NSCLC; 18.5 µM in the assay with DU-145 prostate; 34.2 µM in the assay on HS 578T breast; 5.15 µM in the assay with MOLT-4 leukemia; 8.37 µM with PC-3 prostate; 3.85 µM with SR leukemia. In addition, the results for the GI50 with SW-620 colon and in the assay on UACC-62 melanoma were 23.4 µM and 7.3 µM, respectively. Besides, the TGI with A549 NSCLC was 30.4 µM; in the assay with DU-145 prostate, 35.8 µM; in the assay on HS 578T breast it was 78.9 µM; in the assay with MOLT-4 leukemia, greater than 100 µM; with PC-3 prostate it was 23.8 µM; in the assay with SR leukemia, greater than 100 µM. Besides, the TGI was determined as 89.4 µM in the assay on SW-620 colon and 19.2 µM in the assay with UACC-62 melanoma.

On to `COc1ccc(C(=S)N2CCN(c3cccc(C)c3)CC2)cc1OC`, for which the GI50 was 4.85 µM in the assay with A498 renal; 6.37 µM with A549 NSCLC; 4.59 µM in the assay on DU-145 prostate; 3.16 µM with HS 578T breast; 57.7 µM in the assay on OVCAR-4 ovarian; 1.53 µM in the assay on SR leukemia. Also, the results for the GI50 in the assay on SW-620 colon and with UACC-62 melanoma were 3.04 µM and 4.1 µM, respectively. In addition, the TGI with A498 renal is greater than 100 µM; in the assay with A549 NSCLC, greater than 100 µM; in the assay on DU-145 prostate, greater than 100 µM; in the assay on HS 578T breast, 31.7 µM; in the assay with OVCAR-4 ovarian, greater than 100 µM; in the assay with SR leukemia it was greater than 100 µM. The TGI with SW-620 colon and in the assay on UACC-62 melanoma was greater than 100 µM in each case.
